Data published in patent US12318393B2, “Modulators of orphan nuclear receptors for NASH and other metabolic disorders” (Emory University, priority 2018, dated 2025).

Tests used:
[1] = test system: C57BL/6 mice fed with atherogenic diet; experiment: Atherogenic (fibrotic) diet mouse model: liver damage, inflammation, fibrosis; type: in vivo
Experimental: (§1) Male C57BL/6J mice, 7 to 8 weeks old, were housed randomly in standard cages and were fed a HFD, or atherogenic diet (consisting 1% Chol and 0.5% cholic acid, see also Table 3). All mice had free access to water during the experimental period. During the feeding period body weight was monitored every 3 days. In the HFD experiment, after 4 or 6 weeks, the resultant obese mice were treated with antagomiR-122 ([…] once a week for 3 weeks), or i.p. injected with Compound 1 (RORα agonist, 7.5 mg/kg twice a week for 3 weeks; or 15 mg/kg 3 times a week for 3 weeks). The obese control (HFD) group was administered only saline with DMSO and antagomiR-control. After 3 weeks of treatment mice were sacrificed and livers were taken for RNA-seq analysis. Livers, white adipose, and skeletal muscle tissues were frozen in liquid nitrogen or in optimum cutting temperature embedded frozen blocks, for further RNA and histologic analysis. In the atherogenic diet experiment mice were treated with 15 mg/kg Compound 1 after 3 weeks with the diet. After 3.5 weeks of treatment, mice were sacrificed, and the livers were frozen in liquid nitrogen or in optimum cutting temperature embedded frozen blocks. Plasma was collected from atherogenic diet-fed mice and saved in −20° C. for ALT and AST analysis using the Reflotron® Analyzer and test-strips (Roche).
Livers and adipose samples were placed in 4% buffered formaldehyde for 24 hours, followed by 80% ethanol and then embedded in paraffin blocks. Liver and adipose tissues were cut into […], deparaffinized with xylene and hydrated through graded ethanol. For the H&E staining, tissue sections were stained with hematoxylin (Emmonya Biotech Ltd.) and eosin (Leica, Surgipath). Liver macrophages were stained using rat anti-mouse F4/80 antigen (Serotec), followed by anti-Rat HRP (Histofine) and developed with a DAB kit (Zymed). Liver sections were stained for Masson Trichrome (Sigma). Liver CD3+ T cells were stained using Rat anti human-CD3-antibody (Bio-Rad), followed by anti-Rat HRP (Histofine) and developed with AEC (Invitrogen). α-SMA positive cells were stained using mouse anti-Human smooth Muscle Actin antibody (Dako), followed by anti-mouse HRP (Dako) and developed with DAB. The percentage area stained positively per high power field was calculated by ImageJ Software in 5-10 random fields.
Experimental design: C57BL/6 mice fed for 3 weeks with atherogenic diet (to induce fibrosis) and injected with 15 mg/kg Compound 1 (or saline+DMSO) 3 times a week for 3.5 week (n=8).
Experimental design: C57BL/6 mice fed for 3 weeks with atherogenic diet (to induce fibrosis) and injected with 15 mg/kg Compound 1 (or saline+DMSO) 3 times a week for 3.5 week (n=8). Representative microphotographs of H&E, CD3, and F4/80-stained livers taken from saline or Compound 1-treated mice are shown in FIG. 12A, where scale bars represent 10 μm. The graphs shown in FIG. 12B show quantification of positively-stained F4/80 areas using ImageJ.

[2] = test system: C57BL/6 mice fed with high fat diet (HFD); experiment: HFD-fed C57BL/6 mouse model of NASH, Compound 1 15 mg/kg; type: in vivo
Experimental: To determine the liver and muscle lipid content, muscle and liver tissues (40-80 mg) were homogenized in 0.5 ml of chloroform: Tris solution (v/v, 1:1), the homogenate was transferred to 1 ml of chloroform:methanol solution (v/v, 2:1) centrifuged at 3000 g (at −2° C.) for 10 min (Heraeus Megafuge 16R centrifuge). The organic phase was mixed with 5% Triton X100 in chloroform, dried and re-dissolved in water. After lipid extraction, triglyceride (TG) concentration in samples was measured with Triglyceride Quantification Kit (BioVision), according to the manufactures instructions. Plasma Free fatty acids and β-hydroxybutyrate were determined utilizing commercial colorimetric kits (BioVision) directly from plasma samples.
as §1
Experimental design: C57BL/6 mice fed for 6 weeks with high fat diet (HFD) were injected with 15 mg/kg Compound 1 (or saline+DMSO) 3 times a week for 3 weeks (n=6).
Experimental design: C57BL/6 mice fed for 6 weeks with HFD were injected with 15 mg/kg Compound 1 (or saline+DMSO) 3 times a week for 3 weeks (n=6).

CD4+ Th17 cells = experiment: Modulation of Th17 populations in human PBMCs (flow cytometry); type: cell-based; conditions: 10 μM, 3 day assay
Experimental: Human peripheral blood mononuclear cells (PBMCs) were isolated from four healthy donors. Four experiments were conducted and analyzed by flow cytometry over 3 day assay. The control group had no drug treatment, a second were treated with 10 μM Compound 1, a third group was stimulated with PHA/IL-2 without treatment, and the fourth group was stimulated with PHA/IL-2 and incubated with 10 μM Compound 1. […] Further, Compound 1 has no effect on Th17 populations in the absence of PHA/IL-2 stimulation.

Sgp130FC mice = experiment: Liver triglycerides and lipid accumulation in Sgp130FC mice (NASH model); type: in vivo
Experimental: Sgp130FC mice specifically blocks IL-6 trans-signaling without affecting classic IL-6 signaling. […] Nine-month-old Sgp130FC mice were injected i.p. with Compound 1 (7.5 mg/kg) or vehicle control twice a week for four weeks (total of 8 injections). The mice were sacrificed after 4 weeks, triglyceride levels were measured from liver and skeletal muscle and hepatic lipid accumulation was visualized using H&E staining.
Compound 1 and AntagomiR injections to mice. C57BL/6 male mice, 7-8 weeks old, or Sgp130FC, 9-month-old male mice, were injected i.p. with 7.5 mg/kg Compound 1 dissolved in saline and 3% DMSO. Saline was injected as control. Mice were hydrodynamic tail vain injected with antagomiR-122 or antagomiR-control (negative control) (5 μg/mouse in 1.5 ml saline). Mice were sacrificed according to the legend of the figure describing the experimental results and the livers, white adipose and skeletal muscle tissues were frozen in liquid nitrogen or in OCT embedded frozen blocks, for further RNA and histologic analysis. AntagomiRs were obtained from Sigma Aldrich, see Table 3.
Triglycerides and β-hydroxybutyrate quantification. To determine the liver and muscle lipid content, muscle and liver tissues (40-80 mg) were homogenized in 0.5 ml of chloroform: Tris solution (v/v, 1:1), the homogenate was transferred to 1 ml of chloroform: methanol solution (v/v, 2:1) centrifuged at 3000 rpm for 10 min. The organic phase was mixed with 5% Triton X100 in chloroform, dried and re-dissolved in water. After lipid extraction, TG concentration in samples was measured with Triglyceride Quantification Kit (BioVision), according to the manufactures instructions. β-hydroxybutyrate was determined utilizing commercial colorimetric kits (BioVision) directly from plasma samples.

[3] = 15 mg/kg 3 times a week for 3.5 weeks
[4] = liver, 15 mg/kg 3 times a week for 3.5 weeks
[5] = liver, 15 mg/kg 3 times a week for 3.5 weeks, vs untreated
[6] = 15 mg/kg 3 times a week for 3 weeks
[7] = 7.5 mg/kg i.p. twice/week, four weeks

Structure (SMILES): O=C1Nc2cc(C(=O)N3CCC(Cc4ccccc4)CC3)ccc2Nc2ccccc21 [Compound 1]
- biomarkers of inflammation (Tgfb2 and TgfbR2) and fibrosis (Acta1, Col1A1 and Col3A1), liver mRNA [1, 3]: reducing
- biomarkers of liver injury, AST and ALT (plasma) [1, 3]: significantly improved
- mature miR-122 in tissue and in plasma [1, 3]: increased
- liver vasculature (CD34 staining) ([1]; data not shown): no effect
- T-cell density by CD3 staining [1, 4]: decreased
- immune infiltrate by H&E staining [1, 4]: decreased
- levels of myeloid infiltrate by F4/80 staining [1, 4]: decreased
- reduction of fibrotic areas, Masson Trichrome (M.T) [1, 5]: 5 fold
- reduction of fibrotic areas, α-SMA [1, 5]: 7 fold
- body weight at end of experiment [2, 6]: significantly reduced
- decrease of (liver) triglyceride levels compared to untreated HFD mice [2, 6]: 5 fold
- expression and secretion of miR-122 and precursors in plasma and liver [2, 6]: induced
- hepatic lipid droplets [2, 6]: reduced
- liver/body weight ratio, treated vs untreated group [2, 6]: decrease
- expression of RORα-regulated genes FGF21 and Gpase6 ([2]; 15 mg/kg 3 times a week for 3 weeks, liver): significantly induced
- WAT inflammation ([2]; mice with established NASH on HFD): reducing
- total viability of CD4+ T cells (CD4+ Th17 cells; even under PHA/IL-2 stimulation): no effect
- Th17 total population, presence of PHA/IL-2 stimulation (CD4+ Th17 cells; relative to vehicle-control): decreases
- Th17 populations, absence of PHA/IL-2 stimulation (CD4+ Th17 cells; unstimulated): no effect
- hepatic lipid accumulation and droplet formation (H&E staining) (Sgp130FC mice; 7.5 mg/kg i.p. twice a week for four weeks): markedly reduces
- reduction of liver triglyceride levels (Sgp130FC mice; 7.5 mg/kg i.p. twice a week for four weeks, vs saline): approximately 3 fold
- MicroRNA-18 plasma and liver levels (negative control) (Sgp130FC mice; [7]): not affected
- liver and muscle triglyceride levels (Sgp130FC mice; [7]): reduces
- miR-122 expression (plasma, liver) (Sgp130FC mice; [7]): increases
